Values after ≈ are worked out from the molar mass of the structure shown.
These molecules were tested on Staphylococcus aureus (assay: Antibacterial activity against penicillin-resistant Staphylococcus aureus clinical isolates after 24 hrs by broth microdilution method). Details: not given.
Assay type: functional

Row | SMILES | MIC
1 | O=C(/C=C/c1ccccc1Cl)N1CCN(C(c2ccccc2)c2ccc(Cl)cc2)CC1 (configuration not stated) | > 128 µg/mL
2 | O=C(O)/C=C/c1ccccc1 [CINNAMIC ACID] | > 128 µg/mL
3 | COc1ccccc1/C=C/C(=O)N1CCN(C(c2ccccc2)c2ccc(Cl)cc2)CC1 (configuration not stated) | > 128 µg/mL
4 | O=C(/C=C/c1ccc(F)cc1)N1CCOCC1 | > 128 µg/mL
5 | O=C(/C=C/c1ccc(Cl)cc1Cl)N1CCN(C(c2ccccc2)c2ccc(Cl)cc2)CC1 (configuration not stated) | > 128 µg/mL
6 | COc1ccc(/C=C/C(=O)N2CCOCC2)cc1OC | > 128 µg/mL

Each molecule was assayed on Streptococcus pyogenes (assay: Antibacterial activity against penicillin-susceptible Streptococcus pyogenes clinical isolates after 24 hrs by broth microdilution method). Details: not given.
Assay type: functional

Row | SMILES | MIC
7 | O=C(/C=C/c1ccccc1Cl)N1CCN(C(c2ccccc2)c2ccc(Cl)cc2)CC1 (configuration not stated) | > 128 µg/mL
8 | O=C(O)/C=C/c1ccccc1 [CINNAMIC ACID] | > 128 µg/mL
9 | COc1ccccc1/C=C/C(=O)N1CCN(C(c2ccccc2)c2ccc(Cl)cc2)CC1 (configuration not stated) | > 128 µg/mL
10 | O=C(/C=C/c1ccc(F)cc1)N1CCOCC1 | > 128 µg/mL
11 | O=C(/C=C/c1ccc(Cl)cc1Cl)N1CCN(C(c2ccccc2)c2ccc(Cl)cc2)CC1 (configuration not stated) | > 128 µg/mL
12 | COc1ccc(/C=C/C(=O)N2CCOCC2)cc1OC | > 128 µg/mL

These molecules were tested on Pseudomonas aeruginosa (assay: microbe, parasite or virus in culture). Details: ATCC 27853, 5 h.
Assay type: functional
Description: Inhibition of cell division in penicillin-susceptible Pseudomonas aeruginosa ATCC 27853 assessed as filamentation after 5 hrs by phase contrast microscopy

Row | SMILES | MIC
13 | O=C(/C=C/c1ccccc1Cl)N1CCN(C(c2ccccc2)c2ccc(Cl)cc2)CC1 (configuration not stated) | 128 µg/mL (≈ 284 µM)
14 | O=C(O)/C=C/c1ccccc1 [CINNAMIC ACID] | > 128 µg/mL
15 | COc1ccccc1/C=C/C(=O)N1CCN(C(c2ccccc2)c2ccc(Cl)cc2)CC1 (configuration not stated) | > 128 µg/mL
16 | O=C(/C=C/c1ccc(F)cc1)N1CCOCC1 | 128 µg/mL (≈ 544 µM)
17 | O=C(/C=C/c1ccc(Cl)cc1Cl)N1CCN(C(c2ccccc2)c2ccc(Cl)cc2)CC1 (configuration not stated) | > 128 µg/mL
18 | COc1ccc(/C=C/C(=O)N2CCOCC2)cc1OC | > 128 µg/mL

Each molecule was assayed on Staphylococcus aureus (assay: microbe, parasite or virus in culture). Details: ATCC 25923, 24 h.
Assay type: functional
Description: Antibacterial activity against penicillin-susceptible Staphylococcus aureus ATCC 25923 after 24 hrs by broth microdilution method

Row | SMILES | MIC
19 | O=C(/C=C/c1ccccc1Cl)N1CCN(C(c2ccccc2)c2ccc(Cl)cc2)CC1 (configuration not stated) | > 128 µg/mL
20 | O=C(O)/C=C/c1ccccc1 [CINNAMIC ACID] | > 128 µg/mL
21 | COc1ccccc1/C=C/C(=O)N1CCN(C(c2ccccc2)c2ccc(Cl)cc2)CC1 (configuration not stated) | > 128 µg/mL
22 | O=C(/C=C/c1ccc(F)cc1)N1CCOCC1 | > 128 µg/mL
23 | O=C(/C=C/c1ccc(Cl)cc1Cl)N1CCN(C(c2ccccc2)c2ccc(Cl)cc2)CC1 (configuration not stated) | > 128 µg/mL
24 | COc1ccc(/C=C/C(=O)N2CCOCC2)cc1OC | > 128 µg/mL

What follows are molecules tested on Bacillus subtilis (assay: microbe, parasite or virus in culture). Details: ATCC 9372, 5 h.
Assay type: functional
Description: Inhibition of cell division in penicillin-susceptible Bacillus subtilis ATCC 9372 assessed as filamentation after 5 hrs by phase contrast microscopy

Row | SMILES | MIC
25 | O=C(/C=C/c1ccccc1Cl)N1CCN(C(c2ccccc2)c2ccc(Cl)cc2)CC1 (configuration not stated) | > 128 µg/mL
26 | O=C(O)/C=C/c1ccccc1 [CINNAMIC ACID] | > 128 µg/mL
27 | COc1ccccc1/C=C/C(=O)N1CCN(C(c2ccccc2)c2ccc(Cl)cc2)CC1 (configuration not stated) | > 128 µg/mL
28 | O=C(/C=C/c1ccc(F)cc1)N1CCOCC1 | 128 µg/mL (≈ 544 µM)
29 | O=C(/C=C/c1ccc(Cl)cc1Cl)N1CCN(C(c2ccccc2)c2ccc(Cl)cc2)CC1 (configuration not stated) | 64 µg/mL (≈ 132 µM)
30 | COc1ccc(/C=C/C(=O)N2CCOCC2)cc1OC | > 128 µg/mL

What follows are molecules tested on Pseudomonas aeruginosa (assay: microbe, parasite or virus in culture). Details: ATCC 27853, 24 h.
Assay type: functional
Description: Antibacterial activity against penicillin-susceptible Pseudomonas aeruginosa ATCC 27853 after 24 hrs by broth microdilution method

Row | SMILES | MIC
31 | O=C(/C=C/c1ccccc1Cl)N1CCN(C(c2ccccc2)c2ccc(Cl)cc2)CC1 (configuration not stated) | > 128 µg/mL
32 | O=C(O)/C=C/c1ccccc1 [CINNAMIC ACID] | > 128 µg/mL
33 | COc1ccccc1/C=C/C(=O)N1CCN(C(c2ccccc2)c2ccc(Cl)cc2)CC1 (configuration not stated) | > 128 µg/mL
34 | O=C(/C=C/c1ccc(F)cc1)N1CCOCC1 | 128 µg/mL (≈ 544 µM)
35 | O=C(/C=C/c1ccc(Cl)cc1Cl)N1CCN(C(c2ccccc2)c2ccc(Cl)cc2)CC1 (configuration not stated) | > 128 µg/mL
36 | COc1ccc(/C=C/C(=O)N2CCOCC2)cc1OC | > 128 µg/mL

Each molecule was assayed on Staphylococcus aureus (assay: microbe, parasite or virus in culture). Details: ATCC 29213, 24 h.
Assay type: functional
Description: Antibacterial activity against methicillin-resistant Staphylococcus aureus ATCC 29213 after 24 hrs by broth microdilution method

Row | SMILES | MIC
37 | O=C(/C=C/c1ccccc1Cl)N1CCN(C(c2ccccc2)c2ccc(Cl)cc2)CC1 (configuration not stated) | > 128 µg/mL
38 | O=C(O)/C=C/c1ccccc1 [CINNAMIC ACID] | > 128 µg/mL
39 | COc1ccccc1/C=C/C(=O)N1CCN(C(c2ccccc2)c2ccc(Cl)cc2)CC1 (configuration not stated) | > 128 µg/mL
40 | O=C(/C=C/c1ccc(F)cc1)N1CCOCC1 | > 128 µg/mL
41 | O=C(/C=C/c1ccc(Cl)cc1Cl)N1CCN(C(c2ccccc2)c2ccc(Cl)cc2)CC1 (configuration not stated) | > 128 µg/mL
42 | COc1ccc(/C=C/C(=O)N2CCOCC2)cc1OC | > 128 µg/mL

What follows are molecules tested on Bacillus subtilis (assay: microbe, parasite or virus in culture). Details: ATCC 9372, 24 h.
Assay type: functional
Description: Antibacterial activity against penicillin-susceptible Bacillus subtilis ATCC 9372 after 24 hrs by broth microdilution method

Row | SMILES | MIC
43 | O=C(/C=C/c1ccccc1Cl)N1CCN(C(c2ccccc2)c2ccc(Cl)cc2)CC1 (configuration not stated) | > 128 µg/mL
44 | O=C(O)/C=C/c1ccccc1 [CINNAMIC ACID] | > 128 µg/mL
45 | COc1ccccc1/C=C/C(=O)N1CCN(C(c2ccccc2)c2ccc(Cl)cc2)CC1 (configuration not stated) | > 128 µg/mL
46 | O=C(/C=C/c1ccc(F)cc1)N1CCOCC1 | 128 µg/mL (≈ 544 µM)
47 | O=C(/C=C/c1ccc(Cl)cc1Cl)N1CCN(C(c2ccccc2)c2ccc(Cl)cc2)CC1 (configuration not stated) | > 128 µg/mL
48 | COc1ccc(/C=C/C(=O)N2CCOCC2)cc1OC | 128 µg/mL (≈ 462 µM)

Each molecule was assayed on Escherichia coli (assay: microbe, parasite or virus in culture). Details: ATCC 25922, 24 h.
Assay type: functional
Description: Antibacterial activity against penicillin-susceptible Escherichia coli ATCC 25922 after 24 hrs by broth microdilution method

Row | SMILES | MIC
49 | O=C(/C=C/c1ccccc1Cl)N1CCN(C(c2ccccc2)c2ccc(Cl)cc2)CC1 (configuration not stated) | > 128 µg/mL
50 | O=C(O)/C=C/c1ccccc1 [CINNAMIC ACID] | > 128 µg/mL
51 | COc1ccccc1/C=C/C(=O)N1CCN(C(c2ccccc2)c2ccc(Cl)cc2)CC1 (configuration not stated) | > 128 µg/mL
52 | O=C(/C=C/c1ccc(F)cc1)N1CCOCC1 | 128 µg/mL (≈ 544 µM)
53 | O=C(/C=C/c1ccc(Cl)cc1Cl)N1CCN(C(c2ccccc2)c2ccc(Cl)cc2)CC1 (configuration not stated) | > 128 µg/mL
54 | COc1ccc(/C=C/C(=O)N2CCOCC2)cc1OC | 128 µg/mL (≈ 462 µM)

What follows are molecules tested on Escherichia coli (assay: microbe, parasite or virus in culture). Details: ATCC 25922, 5 h.
Assay type: functional
Description: Inhibition of cell division in penicillin-susceptible Escherichia coli ATCC 25922 assessed as filamentation after 5 hrs by phase contrast microscopy

Row | SMILES | MIC
55 | O=C(/C=C/c1ccccc1Cl)N1CCN(C(c2ccccc2)c2ccc(Cl)cc2)CC1 (configuration not stated) | > 128 µg/mL
56 | O=C(O)/C=C/c1ccccc1 [CINNAMIC ACID] | > 128 µg/mL
57 | COc1ccccc1/C=C/C(=O)N1CCN(C(c2ccccc2)c2ccc(Cl)cc2)CC1 (configuration not stated) | > 128 µg/mL
58 | O=C(/C=C/c1ccc(F)cc1)N1CCOCC1 | 128 µg/mL (≈ 544 µM)
59 | O=C(/C=C/c1ccc(Cl)cc1Cl)N1CCN(C(c2ccccc2)c2ccc(Cl)cc2)CC1 (configuration not stated) | > 128 µg/mL
60 | COc1ccc(/C=C/C(=O)N2CCOCC2)cc1OC | 128 µg/mL (≈ 462 µM)

What follows are molecules tested on Staphylococcus epidermidis (assay: Antibacterial activity against penicillin-resistant Staphylococcus epidermidis clinical isolates after 24 hrs by broth microdilution method). Details: not given.
Assay type: functional

Row | SMILES | MIC
61 | O=C(/C=C/c1ccccc1Cl)N1CCN(C(c2ccccc2)c2ccc(Cl)cc2)CC1 (configuration not stated) | > 128 µg/mL
62 | O=C(O)/C=C/c1ccccc1 [CINNAMIC ACID] | > 128 µg/mL
63 | COc1ccccc1/C=C/C(=O)N1CCN(C(c2ccccc2)c2ccc(Cl)cc2)CC1 (configuration not stated) | > 128 µg/mL
64 | O=C(/C=C/c1ccc(F)cc1)N1CCOCC1 | > 128 µg/mL
65 | O=C(/C=C/c1ccc(Cl)cc1Cl)N1CCN(C(c2ccccc2)c2ccc(Cl)cc2)CC1 (configuration not stated) | > 128 µg/mL
66 | COc1ccc(/C=C/C(=O)N2CCOCC2)cc1OC | > 128 µg/mL

What follows are molecules tested on Staphylococcus aureus (assay: microbe, parasite or virus in culture). Details: ATCC 25923, 5 h.
Assay type: functional
Description: Inhibition of cell division in penicillin-susceptible Staphylococcus aureus ATCC 25923 assessed as ballooning after 5 hrs by phase contrast microscopy

Row | SMILES | MIC
67 | O=C(/C=C/c1ccccc1Cl)N1CCN(C(c2ccccc2)c2ccc(Cl)cc2)CC1 (configuration not stated) | > 128 µg/mL
68 | O=C(O)/C=C/c1ccccc1 [CINNAMIC ACID] | > 128 µg/mL
69 | COc1ccccc1/C=C/C(=O)N1CCN(C(c2ccccc2)c2ccc(Cl)cc2)CC1 (configuration not stated) | 64 µg/mL (≈ 143 µM)
70 | O=C(/C=C/c1ccc(F)cc1)N1CCOCC1 | > 128 µg/mL
71 | O=C(/C=C/c1ccc(Cl)cc1Cl)N1CCN(C(c2ccccc2)c2ccc(Cl)cc2)CC1 (configuration not stated) | 64 µg/mL (≈ 132 µM)
72 | COc1ccc(/C=C/C(=O)N2CCOCC2)cc1OC | > 128 µg/mL
